Test results reported in patent publication US6384041B1, “Bicyclic sPLA2 inhibitors” (Eli Lilly and Company, priority 1998, dated 2002).
Read-outs that look alike come from different tables or passages of the source.

Target: T1, recombinant human secreted phospholipase A2 (Homo sapiens, UniProt P14555)
T1 sequence (P14555 21-144): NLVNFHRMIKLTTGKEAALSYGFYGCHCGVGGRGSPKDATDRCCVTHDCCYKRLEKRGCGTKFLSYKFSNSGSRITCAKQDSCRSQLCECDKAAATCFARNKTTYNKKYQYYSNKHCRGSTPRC
Experiment: Human Recombinant hnp-sPLA2 Chromogenic Assay
Type: biochemical
From the text: The following chromogenic assay procedure was used to identify and evaluate inhibitors of recombinant human secreted phospholipase A2.The assay described herein has been adapted for high volume screening using 96 well microtiter plates. A general description of this assay method is found in the article, “Analysis of Human Synovial Fluid Phospholipase A2 on Short Chain Phosphatidylcholine-Mixed Micelles: Development of a Spectrophotometric Assay Suitable for a Microtiterplate Reader”, by Laure J. Reynolds, Lori L. Hughes, and Edward A Dennis, Analytical Biochemistry, 204, pp. 190-197, 1992 (the disclosure of which is incorporated herein by reference): Reagents:
Bovine Serum Albumin (fatty acid free) (1 g/L)
(Sigma A-7030, product of Sigma Chemical Co. St. Louis Mo., USA) […]
pH 7.5 (adjust with NaOH)
Adjust pH to 4.5 with acetic acid
DTNB—5,5′-dithiobis-2-nitrobenzoic acid
Racemic Diheptanoyl Thio-PC racemic 1,2-bis(heptanoylthio)-1,2-dideoxy-sn-glycero-3-phosphorylcholine TRITON X-100™ prepare at 6.249 mg/ml in reaction buffer to equal […].
A measured volume of racemic dipheptanoyl thio PC supplied in chloroform at a concentration of 100 mg/ml is taken to dryness and redissolved in 10 millimolar TRITON X-100™ nonionic detergent aqueous solution.
Reaction Buffer is added to the solution, then DTNB to give the Reaction Mixture.
The reaction mixture thus obtained contains lmM diheptanoly thio-PC substrate, 0.29 mm Triton X-100™ detergent, and 0.12 mm DTMB in a buffered aqueous solution at pH 7.5.
1. Add 0.2 ml reaction mixture to all wells;
2. Add 10 ul test compound (or solvent blank) to appropriate wells, mix 20 seconds;
3. Add 50 nanograms of sPLA2 (10 microliters) to appropriate wells;
4. Incubate plate at 40° C. for 30 minutes;
5. Read absorbance of wells at 405 nanometers with an automatic plate reader.
All compounds were tested in triplicate. Typically, compounds were tested at a final concentration of 5 ug/ml. […] Lack of color development at 405 nanometers evidenced inhibition. Compounds initially found to be active were reassayed to confirm their activity and, if sufficiently active, IC50 values were determined. […] In all cases, % inhibition measured at 405 nanometers generated by enzyme reactions containing inhibitors relative to the uninhibited control reactions was determined. Each sample was titrated in triplicate and result values were averaged for plotting and calculation of IC50 values. IC50 were determined by plotting log concentration versus inhibition values in the range from 10-90% inhibition.

[1] = chromogenic assay, diheptanoyl thio-PC substrate, pH 7.5, 40° C. for 30 minutes, absorbance at 405 nm, average of n = 3-4, read-out: IC50 (micro-molar) n = 3 − 4 (ave)

## CCc1c(C(=O)C(N)=O)c2c(OCC(=O)O)ncnc2n1Cc1cccc(Cl)c1 [—H|—H|m-Cl-phenyl, [[5-(aminooxoacetyl)-6-ethyl-7-[(3-chlorophenyl)methyl]-7H-pyrrolo[2,3-d]pyrimidin-4-yl]oxy]acetic acid]
  IC50: 91 nM

## CCc1c(C(=O)C(N)=O)c2c(OCC(=O)O)nc(SC)nc2n1Cc1cccc(C(F)(F)F)c1 [—H|—S-methyl|m-CF3-phenyl, [[2-(methylthio)-5-(aminooxoacetyl)-6-ethyl-7-[[3-(trifluoromethyl)phenyl]methyl]-7H-pyrrolo[2,3-d]pyrimidin-4-yl]oxy]acetic acid]
  IC50: 13 nM

## CCc1c(C(=O)C(N)=O)c2c(OCC(=O)OC)nc(C)nc2n1Cc1ccccc1 [—CH3|—CH3|phenyl, [[2-methyl-5-(aminooxoacetyl)-6-ethyl-7-(phenylmethyl)-7H-pyrrolo[2,3-d]pyrimidin-4-yl]oxy]acetic acid methyl ester]
[1]
  IC50: 4650 nM

## CCc1c(C(=O)C(N)=O)c2c(OCC(=O)O)nc(SC)nc2n1Cc1cccc(Cl)c1 [—H|—S-methyl|m-Cl-phenyl, [[2-(methylthio)-5-(aminooxoacetyl)-6-ethyl-7-[(3-chlorophenyl)methyl]-7H-pyrrolo[2,3-d]pyrimidin-4-yl]oxy]acetic acid]
  IC50: 19 nM

## CCc1c(C(=O)C(N)=O)c2c(OCC(=O)O)nc(Sc3ccccc3)nc2n1Cc1ccccc1 [—H|—S-phenyl|phenyl, [[2-(phenylthio)-5-(aminooxoacetyl)-6-ethyl-7-(phenylmethyl)-7H-pyrrolo[2,3-d]pyrimidin-4-yl]oxy]acetic acid]
  IC50: 11 nM

## CCc1c(C(=O)C(N)=O)c2c(OCC(=O)O)ncnc2n1Cc1ccccc1 [—H|—H|phenyl, [[5-(aminooxoacetyl)-6-ethyl-7-(phenylmethyl)-7H-pyrrolo[2,3-d]pyrimidin-4-yl]oxy]acetic acid]
  IC50: 48 nM

## CCc1c(C(=O)C(N)=O)c2c(OCC(=O)O)ncnc2n1Cc1cccc(F)c1 [—H|—H|m-F-phenyl, [[5-(aminooxoacetyl)-6-ethyl-7-[(3-fluorophenyl)methyl]-7H-pyrrolo[2,3-d]pyrimidin-4-yl]oxy]acetic acid]
  IC50: 98 nM

## CCc1c(C(=O)C(N)=O)c2c(OCC(=O)O)nc(C)nc2n1Cc1ccccc1 [—H|—CH3|phenyl, [[2-methyl-5-(aminooxoacetyl)-6-ethyl-7-(phenylmethyl)-7H-pyrrolo[2,3-d]pyrimidin-4-yl]oxy]acetic Acid]
  IC50: 88 nM

## CCc1c(C(=O)C(N)=O)c2c(OCC(=O)O)nc(SC)nc2n1Cc1ccccc1 [—H|—SCH3|phenyl, [[2-(methylthio)-5-(aminooxoacetyl)-6-ethyl-7-(phenylmethyl)-7H-pyrrolo[2,3-d]pyrimidin-4-yl]oxy]acetic acid]
  IC50: 19 nM

## CCc1c(C(=O)C(N)=O)c2c(OCC(=O)O)ncnc2n1Cc1ccccc1-c1ccccc1 [—H|—H|o-phenyl-phenyl, [[5-(aminooxoacetyl)-6-ethyl-7-([1,1′-biphenyl]-2-ylmethyl)-7H-pyrrolo[2,3-d]pyrimidin-4-yl]oxy]acetic acid]
[1]
  IC50: 114 nM

## CCc1c(C(=O)C(N)=O)c2c(OCC(=O)O)nc(SC)nc2n1Cc1cccc(F)c1 [—H|—S-methyl|m-F-phenyl, [[2-(methylthio)-5-(aminooxoacetyl)-6-ethyl-7-[(3-fluorophenyl)methyl]-7H-pyrrolo[2,3-d]pyrimidin-4-yl]oxy]acetic acid]
  IC50: 16 nM

## CCc1c(C(=O)C(N)=O)c2c(OCC(=O)O)nc(OC)nc2n1Cc1ccccc1 [—H|—O—CH3|phenyl, [[2-methoxy-5-(aminooxoacetyl)-6-ethyl-7-(phenylmethyl)-7H-pyrrolo[2,3-d]pyrimidin-4-yl]oxy]acetic acid]
  IC50: 46 nM

## CCc1c(C(=O)C(N)=O)c2c(OCC(=O)O)ncnc2n1Cc1cccc(C(F)(F)F)c1 [—H|—H|m-CF3-phenyl, [[5-(aminooxoacetyl)-6-ethyl-7-[[3-(trifluoromethyl)phenyl]methyl]-7H-pyrrolo[2,3-d]pyrimidin-4-yl]oxy]acetic acid]
[1]
  IC50: 124 nM

## CCc1c(C(=O)C(N)=O)c2c(OCC(=O)OC)ncnc2n1Cc1ccccc1 [—CH3|—H|phenyl, [[5-(aminooxoacetyl)-6-ethyl-7-(phenylmethyl)-7H-pyrrolo[2,3-d]pyrimidin-4-yl]oxy]acetic acid methyl ester]
[1]
  IC50: 5460 nM

## CCc1c(C(=O)C(N)=O)c2c(OCC(=O)O)nc(SC)nc2n1Cc1ccccc1-c1ccccc1 [—H|—S-methyl|o-phenyl-phenyl, [[2-(methylthio)-5-(aminooxoacetyl)-6-ethyl-7-([1,1′-biphenyl]-2-ylmethyl)-7H-pyrrolo[2,3-d]pyrimidin-4-yl]oxy]acetic acid]
  IC50: 9 nM
